Patent US7947741B2, “Use and administration of bacterial efflux pump inhibitors” (Mpex Pharmaceuticals, Inc., priority 2004, dated 2011)
≈ marks a conversion by molar mass, not a printed value. Like-named read-outs stand apart in the source and are kept apart here.

How the values were obtained:
[1] = tested on: P. aeruginosa PAM1723 (MexAB-OprM overexpressed); type: cell-based, Pseudomonas aeruginosa; details: for MIC, No Pentamidine / MIC, Pentamidine (40 μg/ml): PAM1723 (MexAB-OprM overexpressed); for MIC, Pentamidine (40 μg/ml): in the presence of pentamidine 40 μg/ml
[2] = tested on: P. aeruginosa PAM1154 (MexAB-OprM deleted); type: cell-based, Pseudomonas aeruginosa
[3] = tested on: P. aeruginosa PAM1020 (wt, basal level of MexAB-OprM); test: Levofloxacin potentiation checkerboard assay (broth microdilution); type: cell-based, Pseudomonas aeruginosa; details: PAM1020; for MIC: Pseudomonas aeruginosa, inhibitor alone, read-out: MIC* (MIC for the efflux pump inhibitor)
Protocol: (§1) Stock solutions were further diluted, according to the needs of a particular assay, in Mueller Hinton Broth (MHB). Stock solution was stored at −80° C.
(§2) The checkerboard assay was performed in microtiter plates. […] The result of these manipulations is that each well of the microtiter plate contains a unique combination of concentrations of the two agents. The assay was performed in MHB with a final bacterial inoculum of 5×10^5 CFU/ml (from an early-log phase culture). Microtiter plates were incubated during 20 h at 35° C. and were read using a microtiterplate reader (Molecular Devices) at 650 nm as well as visual observation using a microtiter plate reading mirror.
(§3) The test organisms used was PAM1020, which is a wild type strain of P. aeruginosa expressing the basal level of MexAB-OprM, as well as PAM1723, PAM1738, and PAM1753, overexpressing the MexAB-OprM, MexCD-OprJ, and MexEF-OprN pump, respectively.

[4] = tested on: P. aeruginosa PAM1753 (nfxC, overexpressing MexEF-OprN); test: as above; type: cell-based, Pseudomonas aeruginosa; details: for Levofloxacin MIC in the presence of inhibitor: PAM1753; for MIC: Pseudomonas aeruginosa, read-out: MIC* (MIC for the efflux pump inhibitor)
Protocol: as §1, §2, §3

[5] = tested on: P. aeruginosa PAM1723 (nalB, overexpressing MexAB-OprM); test: microbe, parasite or virus in culture; type: cell-based, Pseudomonas aeruginosa; details: for Levofloxacin MIC in the presence of inhibitor: PAM1723; for MIC: Pseudomonas aeruginosa, read-out: MIC* (MIC for the efflux pump inhibitor), PAM1723, inhibitor alone
Protocol: as §1, §2, §3
Efflux pump inhibitory activity of several commercially available diamidine analogs was evaluated using the checkerboard assay of Example 1 against the strain of P. aeruginosa overexpressing the MexAB-OprM efflux pump.

[6] = tested on: P. aeruginosa PAM1738 (nfxB, overexpressing MexCD-OprJ); test: microbe, parasite or virus in culture; type: cell-based, Pseudomonas aeruginosa; details: for Levofloxacin MIC in the presence of inhibitor: PAM1738; for MIC: Pseudomonas aeruginosa, read-out: MIC* (MIC for the efflux pump inhibitor)
Protocol: as §1, §2, §3

[7] = tested on: P. aeruginosa PAM1626 (lacks all the three efflux pumps); test: microbe, parasite or virus in culture; type: cell-based, Pseudomonas aeruginosa; details: for Levofloxacin MIC in the presence of inhibitor: PAM1626; for MIC: Pseudomonas aeruginosa, read-out: MIC* (MIC for the efflux pump inhibitor)
[8] = target: MexAB-OprM-mediated efflux of Leu-Nap, PAM1723 cells (Pseudomonas aeruginosa, UniProt P52002); test: Leu-Nap accumulation assay; type: cell-based; details: Leu-Nap 100 μg/ml
[9] = intravenous infusion; cited from earlier work

Chain of MexAB-OprM-mediated efflux of Leu-Nap, PAM1723 cells (Q51487 18-485): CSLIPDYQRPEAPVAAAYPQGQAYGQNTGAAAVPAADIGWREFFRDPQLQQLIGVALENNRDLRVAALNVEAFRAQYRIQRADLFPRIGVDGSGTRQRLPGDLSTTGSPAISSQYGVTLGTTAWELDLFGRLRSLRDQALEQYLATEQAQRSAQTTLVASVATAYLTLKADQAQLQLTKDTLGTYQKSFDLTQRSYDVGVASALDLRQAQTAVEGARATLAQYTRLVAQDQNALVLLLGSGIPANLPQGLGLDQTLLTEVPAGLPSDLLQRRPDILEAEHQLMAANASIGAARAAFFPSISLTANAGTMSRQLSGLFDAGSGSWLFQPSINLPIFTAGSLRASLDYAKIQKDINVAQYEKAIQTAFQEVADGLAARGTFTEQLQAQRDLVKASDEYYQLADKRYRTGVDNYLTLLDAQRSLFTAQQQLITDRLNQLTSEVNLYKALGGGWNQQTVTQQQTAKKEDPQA
Chain of MexAB-OprM-mediated efflux of Leu-Nap, PAM1723 cells (P52002 whole entry, the tested form may be a part): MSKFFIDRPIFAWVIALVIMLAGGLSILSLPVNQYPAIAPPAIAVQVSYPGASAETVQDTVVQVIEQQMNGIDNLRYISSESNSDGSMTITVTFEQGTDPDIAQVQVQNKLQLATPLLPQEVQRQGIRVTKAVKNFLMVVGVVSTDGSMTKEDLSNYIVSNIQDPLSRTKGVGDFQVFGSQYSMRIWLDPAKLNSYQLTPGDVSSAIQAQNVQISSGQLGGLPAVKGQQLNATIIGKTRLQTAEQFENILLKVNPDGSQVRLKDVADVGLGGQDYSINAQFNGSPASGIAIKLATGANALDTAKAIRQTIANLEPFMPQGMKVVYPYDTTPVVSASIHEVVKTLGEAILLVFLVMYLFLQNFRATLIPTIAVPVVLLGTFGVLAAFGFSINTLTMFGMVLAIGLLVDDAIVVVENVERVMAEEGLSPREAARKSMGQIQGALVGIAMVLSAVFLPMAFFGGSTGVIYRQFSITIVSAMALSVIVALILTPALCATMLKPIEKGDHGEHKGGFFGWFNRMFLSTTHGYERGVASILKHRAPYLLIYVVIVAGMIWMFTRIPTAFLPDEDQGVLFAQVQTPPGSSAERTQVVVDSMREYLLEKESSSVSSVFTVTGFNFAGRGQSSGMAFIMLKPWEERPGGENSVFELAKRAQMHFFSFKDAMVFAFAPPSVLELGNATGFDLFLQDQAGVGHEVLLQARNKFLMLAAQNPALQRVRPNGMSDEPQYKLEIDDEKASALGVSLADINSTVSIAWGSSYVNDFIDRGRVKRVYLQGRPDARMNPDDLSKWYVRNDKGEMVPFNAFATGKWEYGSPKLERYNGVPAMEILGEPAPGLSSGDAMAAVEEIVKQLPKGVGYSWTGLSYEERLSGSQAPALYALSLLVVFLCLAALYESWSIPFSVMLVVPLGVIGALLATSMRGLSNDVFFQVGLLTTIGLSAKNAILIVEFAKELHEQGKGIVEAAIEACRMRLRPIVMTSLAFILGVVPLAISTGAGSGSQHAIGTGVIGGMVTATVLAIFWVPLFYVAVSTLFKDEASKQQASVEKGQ
Chain of MexAB-OprM-mediated efflux of Leu-Nap, PAM1723 cells (P52477 24-383, further chain): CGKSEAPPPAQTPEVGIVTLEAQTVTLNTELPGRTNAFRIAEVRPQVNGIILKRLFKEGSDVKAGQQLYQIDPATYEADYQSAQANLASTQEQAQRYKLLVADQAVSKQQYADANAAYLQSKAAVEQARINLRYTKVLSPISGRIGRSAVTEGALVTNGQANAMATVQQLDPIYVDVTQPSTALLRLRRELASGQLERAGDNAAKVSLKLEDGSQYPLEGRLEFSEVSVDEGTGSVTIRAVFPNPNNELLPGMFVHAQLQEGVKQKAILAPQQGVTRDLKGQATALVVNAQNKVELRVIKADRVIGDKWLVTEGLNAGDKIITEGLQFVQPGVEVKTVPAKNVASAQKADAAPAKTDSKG

Structure (SMILES) | MIC, No Pentamidine [1] | MIC, Pentamidine (40 μg/ml) [1] | decrease of the MIC by pentamidine ([1]; PAM1723, pentamidine 40 μg/ml) | MIC, No Pentamidine [2] | Levofloxacin MIC in the presence of inhibitor ([3]; inhibitor 1.25 μg/ml) | Levofloxacin MIC in the presence of inhibitor ([3]; inhibitor 2.5 μg/ml) | Levofloxacin MIC in the presence of inhibitor ([3]; inhibitor 5 μg/ml) | Levofloxacin MIC in the presence of inhibitor ([3]; inhibitor 10 μg/ml) | MIC [3] | Levofloxacin MIC in the presence of inhibitor ([4]; inhibitor 1.25 μg/ml) | Levofloxacin MIC in the presence of inhibitor ([4]; inhibitor 2.5 μg/ml) | MIC [4] | Levofloxacin MIC in the presence of inhibitor ([5]; inhibitor 1.25 μg/ml) | Levofloxacin MIC in the presence of inhibitor ([5]; inhibitor 2.5 μg/ml) | Levofloxacin MIC in the presence of inhibitor ([5]; inhibitor 5 μg/ml) | Levofloxacin MIC in the presence of inhibitor ([5]; inhibitor 10 μg/ml) | Levofloxacin MIC in the presence of inhibitor ([5]; inhibitor 20 μg/ml) | Levofloxacin MIC in the presence of inhibitor ([5]; inhibitor 40 μg/ml) | MIC [5] | Levofloxacin MIC in the presence of inhibitor ([6]; inhibitor 1.25 μg/ml) | other results
CC[C@H]1OC(=O)[C@H](C)[C@@H](O[C@H]2C[C@@](C)(OC)[C@@H](O)[C@H](C)O2)[C@H](C)[C@@H](O[C@@H]2O[C@H](C)C[C@H](N(C)C)[C@H]2O)[C@](C)(O)C[C@@H](C)CN(C)[C@H](C)[C@@H](O)[C@]1(C)O [Azithro, azithromycin] | 64 µg/mL (≈ 85.4 µM) | 1 | 64 fold | 0.5 µg/mL (≈ 0.668 µM) |  |  |  |  |  |  |  |  |  |  |  |  |  |  |  |  | 
O=C(N[C@H](CO)[C@H](O)c1ccc([N+](=O)[O-])cc1)C(Cl)Cl [Cm, chloramphenicol] | 128 µg/mL (≈ 396 µM) | 8 | 16 fold | 1 µg/mL (≈ 3.09 µM) |  |  |  |  |  |  |  |  |  |  |  |  |  |  |  |  | 
N=C(N)c1ccc(OCCCOc2ccc(C(=N)N)cc2Br)c(Br)c1 [Dibromopropamidine, dibromopropamidine] |  |  |  |  | 0.25 µg/mL | 0.25 µg/mL | 0.125 µg/mL | 0.06 µg/mL | 80 µg/mL | 2 µg/mL | 1 µg/mL | 20 µg/mL | 2 µg/mL | 1 µg/mL | 0.5 µg/mL | 0.125 µg/mL | 0.06 µg/mL | 0.06 µg/mL | 80 µg/mL | 0.5 µg/mL | Levofloxacin MIC in the presence of inhibitor ([3]; inhibitor 20 μg/ml): 0.03 µg/mL; Levofloxacin MIC in the presence of inhibitor ([3]; inhibitor 40 μg/ml): 0.03 µg/mL; Levofloxacin MIC in the presence of inhibitor ([4]; inhibitor 5 μg/ml): 0.5 µg/mL; Levofloxacin MIC in the presence of inhibitor ([4]; inhibitor 10 μg/ml): 0.125 µg/mL; Levofloxacin MIC in the presence of inhibitor ([6]; inhibitor 2.5 μg/ml): 0.25 µg/mL; Levofloxacin MIC in the presence of inhibitor ([6]; inhibitor 5 μg/ml): 0.125 µg/mL; Levofloxacin MIC in the presence of inhibitor ([6]; inhibitor 10 μg/ml): 0.06 µg/mL; Levofloxacin MIC in the presence of inhibitor ([6]; inhibitor 20 μg/ml): 0.03 µg/mL; Levofloxacin MIC in the presence of inhibitor ([6]; inhibitor 40 μg/ml): 0.03 µg/mL; MIC [6]: 80 µg/mL; Levofloxacin MIC in the presence of inhibitor ([7]; inhibitor 1.25 μg/ml): 0.0075 µg/mL; Levofloxacin MIC in the presence of inhibitor ([7]; inhibitor 2.5 μg/ml): 0.007 µg/mL; MIC [7]: 5 µg/mL (≈ 10.6 µM); inhibitor concentration at which rate of Leu-Nap uptake in PAM1723 and PAM1626 is the same (complete inhibition of efflux) [8]: 20 µg/mL
CC[C@H]1OC(=O)[C@H](C)[C@@H](O[C@H]2C[C@@](C)(OC)[C@@H](O)[C@H](C)O2)[C@H](C)[C@@H](O[C@@H]2O[C@H](C)C[C@H](N(C)C)[C@H]2O)[C@](C)(O)C[C@@H](C)C(=O)[C@H](C)[C@@H](O)[C@]1(C)O [Erm, erythromycin] |  | 64 | 4 fold | 8 µg/mL (≈ 10.9 µM) |  |  |  |  |  |  |  |  |  |  |  |  |  |  |  |  | 
N=C(N)c1ccc(OCCCCCCOc2ccc(C(=N)N)cc2)cc1 [Hexamidine, hexamidine] |  |  |  |  | 0.125 µg/mL | 0.125 µg/mL | 0.03 µg/mL | 0.007 µg/mL | 20 µg/mL | 2 µg/mL | 2 µg/mL | 20 µg/mL | 2 µg/mL | 1 µg/mL | 1 µg/mL | 0.125 µg/mL | 0.015 µg/mL |  | 40 µg/mL | 0.5 µg/mL | Levofloxacin MIC in the presence of inhibitor ([4]; inhibitor 5 μg/ml): 1 µg/mL; Levofloxacin MIC in the presence of inhibitor ([4]; inhibitor 10 μg/ml): 0.25 µg/mL; Levofloxacin MIC in the presence of inhibitor ([6]; inhibitor 2.5 μg/ml): 0.5 µg/mL; Levofloxacin MIC in the presence of inhibitor ([6]; inhibitor 5 μg/ml): 0.25 µg/mL; Levofloxacin MIC in the presence of inhibitor ([6]; inhibitor 10 μg/ml): 0.06 µg/mL; Levofloxacin MIC in the presence of inhibitor ([6]; inhibitor 20 μg/ml): 0.015 µg/mL; Levofloxacin MIC in the presence of inhibitor ([6]; inhibitor 40 μg/ml): 0.007 µg/mL; MIC [6]: 80 µg/mL; Levofloxacin MIC in the presence of inhibitor ([7]; inhibitor 1.25 μg/ml): 0.007 µg/mL; MIC [7]: 2.5 µg/mL (≈ 7.05 µM); inhibitor concentration at which rate of Leu-Nap uptake in PAM1723 and PAM1626 is the same (complete inhibition of efflux) [8]: 20 µg/mL
N=C(N)c1ccc(/N=N/Nc2ccc(C(=N)N)cc2)cc1 [MP 601206] |  |  |  |  |  |  |  |  |  |  |  |  | 2 µg/mL | 2 µg/mL | 1 µg/mL | 1 µg/mL | 0.5 µg/mL | 0.06 µg/mL | 80 µg/mL |  | 
Cl.Cl.N=C(N)c1cccc(NC(=O)Nc2cccc(C(=N)N)c2)c1 [MP 601319] |  |  |  |  |  |  |  |  |  |  |  |  | 2 µg/mL | 2 µg/mL | 2 µg/mL | 2 µg/mL | 1 µg/mL | 0.25 µg/mL | > 80 µg/mL |  | Levofloxacin MIC in the presence of inhibitor ([5]; inhibitor 80 μg/ml): 0.125 µg/mL
N=C(N)c1ccc(OCCCOc2ccc(C(=N)N)cc2)cc1 [Propamidine, propamidine] |  |  |  |  | 0.25 µg/mL | 0.125 µg/mL | 0.125 µg/mL | 0.06 µg/mL | 40 µg/mL | 4 µg/mL | 2 µg/mL | 5 µg/mL | 2 µg/mL | 2 µg/mL | 1 µg/mL | 0.5 µg/mL | 0.25 µg/mL |  | 40 µg/mL | 0.5 µg/mL | Levofloxacin MIC in the presence of inhibitor ([3]; inhibitor 20 μg/ml): 0.03 µg/mL; Levofloxacin MIC in the presence of inhibitor ([6]; inhibitor 2.5 μg/ml): 0.5 µg/mL; Levofloxacin MIC in the presence of inhibitor ([6]; inhibitor 5 μg/ml): 0.25 µg/mL; Levofloxacin MIC in the presence of inhibitor ([6]; inhibitor 10 μg/ml): 0.125 µg/mL; Levofloxacin MIC in the presence of inhibitor ([6]; inhibitor 20 μg/ml): 0.015 µg/mL; MIC [6]: 40 µg/mL; Levofloxacin MIC in the presence of inhibitor ([7]; inhibitor 1.25 μg/ml): 0.015 µg/mL; Levofloxacin MIC in the presence of inhibitor ([7]; inhibitor 2.5 μg/ml): 0.007 µg/mL; Levofloxacin MIC in the presence of inhibitor ([7]; inhibitor 5 μg/ml): 0.007 µg/mL; MIC [7]: 10 µg/mL (≈ 32 µM); inhibitor concentration at which rate of Leu-Nap uptake in PAM1723 and PAM1626 is the same (complete inhibition of efflux) [8]: 160 µg/mL
NC[C@H]1O[C@H](O[C@H]2[C@H](O)[C@@H](O[C@H]3O[C@H](CO)[C@@H](O)[C@H](N)[C@H]3O)[C@H](N)C[C@@H]2N)[C@H](N)C[C@@H]1O [Tb, tobramycin] | 0.06 µg/mL (≈ 0.128 µM) | 0.03 |  | 0.03 µg/mL (≈ 0.0642 µM) |  |  |  |  |  |  |  |  |  |  |  |  |  |  |  |  | decrease of the MIC by pentamidine [1]: almost no effect
N=C(N)c1ccc(OCCCCCOc2ccc(C(=N)N)cc2)cc1 [pentamidine isethionate, 4,4′-diamidino-diphenoxypentane di(β-hydroxyethanesulfonate)] |  |  |  |  |  |  |  |  |  |  |  |  |  |  |  |  |  |  |  |  | plasma levels during the first two hours following an intravenous infusion [9]: one-twentieth of peak levels
